From PMC4139342, “Pharmacokinetics-Pharmacodynamics Analysis of Bicyclic 4-Nitroimidazole Analogs in a Murine Model of Tuberculosis” (PLoS ONE, 2014)
Converted amounts (≈) assume the structure as drawn.

Legend:
[1] = Cytotoxicity against THP1 macrophage cell lines; assay type: cell-based; conditions: human
[2] = female, CD-1, mouse, in vivo, iv, 5 mg/kg
[3] = female, CD-1, mouse, in vivo, po, 25 mg/kg
Mtb H37Rv = assay: In vivo mouse efficacy, established murine TB model; parameters: species or system Balb/c mice; conditions: 100 mg/kg oral daily for 4 weeks
Procedure: In vivo mouse efficacy studies were determined after intranasal infection of Balb/c mice with 10^3 cfu Mtb H37Rv. Treatment was initiated 4 weeks after infection. Compounds were orally administered in CM-2 formulation for 4 weeks daily. Bacterial loads were determined at 2 and 4 weeks post treatment. Statistical analysis was done by a one-way analysis of variance, followed by a multiple comparison analysis of variance by a one-way Tukey test (GraphPad Prism, version 5.02, San Diago, California USA, www.graphpad.com). Differences were considered statistically significant at the 95% level of confidence.

physchem [4] = conditions: pH 6.8, aqueous buffer, thermodynamic from solid
in vivo [5] = conditions: female, CD-1, mouse, po, 25 mg/kg
[6] = tested on: M. tuberculosis (Mtb) (H37Rv, ATCC 27294); assay: microbe, parasite or virus in culture; assay type: cell-based; conditions: Mycobacterium tuberculosis
[7] = In vivo plasma PK after oral dosing in CM-2 formulation; conditions: female, CD-1, mouse, plasma, po, 25 mg/kg
in vivo [8] = conditions: female, CD-1, mouse, iv, 5 mg/kg
in vitro [9] = conditions: human, Caco-2
in vitro [10] = conditions: mouse, plasma
physchem [11] = assay: physchem
[12] = In vivo lung PK after oral dosing; conditions: female, CD-1, mouse, 25 mg/kg
[13] = In vivo plasma PK after intravenous dosing; conditions: female, CD-1, mouse, plasma, iv, 5 mg/kg, T1/2 (i.v), mice, i.v. dosing at 5 mg/kg
in vivo [14] = conditions: female, CD-1, mouse, po, 25 mg/kg; remark: listed apart in the source

O=[N+]([O-])c1cn2c(n1)OC1(CC1)C(OCc1ccc(OC(F)(F)F)cc1)C2 (centres unmarked) [NI-302]
CC50 [1]: > 10 µg/mL
i.v. CL [2]: 4.3 mL/min/kg
Lung AUC24 [3]: 100.3 µg·h/g
Lung Cmax [3]: 9.7 µg/g
Mean log lung CFU ± SEM (Mtb H37Rv; 5 animals): 4.45±0.22 log CFU
Efficacy compared with PA-824, in words (Mtb H37Rv; significance at P<0.05): comparable efficacy to PA-824
log reduction at 100 mg/kg (Mtb H37Rv; Mycobacterium tuberculosis, H37RV, po, 672 h, 5 animals, read-out: Mean log lung CFU reduction ± SEM compared to untreated controls): 2.17 ± 0.22
solubility (physchem [4]): 26 µg/mL (≈ 67.5 µM)
Kp (in vivo [5]; Lung to Plasma ratio AUC24): 0.7
Kp (in vivo [5]; Lung to Plasma ratio Cmax): 0.8
MIC99 [6]: 0.03 µg/mL (≈ 0.0779 µM)
half-life [7]: 4.1 h
Vd (in vivo [8]): 1.2 L/kg
clearance (in vivo [8]; i.v. CL): 5 mL/min/kg
PAMPA %FA: 99%
PAMPA Log Pe: –3.6 cm/sec
Papp A→B (in vitro [9]): 45.1 ×10⁻⁶ cm/s
Papp B→A (in vitro [9]): 18.7 ×10⁻⁶ cm/s
efflux ratio (in vitro [9]): 0.4
fraction unbound (in vitro [10]): 0.043
logP (physchem [11]): 3.2
half-life [12]: 4.1 h
half-life [13]: 3.7 h
AUC (in vivo [14]): 144 µg·h/mL
Cmax (in vivo [14]): 12900 ng/mL
bioavailability (in vivo [14]): 100%
